Results reported in patent publication US20260159519A1, “IMIDAZOPYRIDAZINE SUBSTITUTED BENZENE RING DERIVATIVE, PREPARATION METHOD, PHARMACEUTICAL COMPOSITION AND USE” (SHANGHAI SIMR BIOTECHNOLOGY CO., LTD., priority 2022, published 2026).

Columns and labels:
[1] = molecular target: T1, human α1-GABAA receptor (α1-GABAAR-HEK293 cells) (Homo sapiens, UniProt P14867+P18507); assay: Whole-cell patch-clamp electrophysiology, positive allosteric modulatory activity on α1-GABAA receptor; type: cell-based; settings: read-out: α1-GABAA positive allosteric modulatory activity
T1 construct: expressed in transfected cells
T1 sequence (P14867 28-456): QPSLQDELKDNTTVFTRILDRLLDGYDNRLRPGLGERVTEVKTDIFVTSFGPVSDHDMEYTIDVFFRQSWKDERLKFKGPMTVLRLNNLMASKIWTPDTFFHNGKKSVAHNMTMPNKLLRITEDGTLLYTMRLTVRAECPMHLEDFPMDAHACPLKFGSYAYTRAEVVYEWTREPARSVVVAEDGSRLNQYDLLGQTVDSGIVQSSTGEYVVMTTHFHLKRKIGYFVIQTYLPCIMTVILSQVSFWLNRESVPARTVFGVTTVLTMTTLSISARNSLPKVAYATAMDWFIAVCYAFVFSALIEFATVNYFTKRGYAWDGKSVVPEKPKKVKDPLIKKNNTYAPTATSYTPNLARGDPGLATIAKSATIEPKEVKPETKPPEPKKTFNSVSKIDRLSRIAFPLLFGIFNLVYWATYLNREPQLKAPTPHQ
T1 sequence (P18507 40-467 isoform P18507-1 limits assumed): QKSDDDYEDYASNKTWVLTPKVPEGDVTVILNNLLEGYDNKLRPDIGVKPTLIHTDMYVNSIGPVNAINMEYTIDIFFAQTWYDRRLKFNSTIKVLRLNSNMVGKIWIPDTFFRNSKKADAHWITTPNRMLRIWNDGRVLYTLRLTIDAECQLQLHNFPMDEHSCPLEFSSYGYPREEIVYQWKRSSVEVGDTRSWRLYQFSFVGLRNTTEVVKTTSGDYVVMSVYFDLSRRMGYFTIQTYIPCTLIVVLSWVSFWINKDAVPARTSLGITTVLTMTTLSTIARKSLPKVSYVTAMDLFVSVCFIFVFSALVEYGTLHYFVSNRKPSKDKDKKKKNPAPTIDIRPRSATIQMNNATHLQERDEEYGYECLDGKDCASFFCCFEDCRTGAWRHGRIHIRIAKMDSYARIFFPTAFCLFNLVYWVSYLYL
T1 sequence (P28472 26-473 partner): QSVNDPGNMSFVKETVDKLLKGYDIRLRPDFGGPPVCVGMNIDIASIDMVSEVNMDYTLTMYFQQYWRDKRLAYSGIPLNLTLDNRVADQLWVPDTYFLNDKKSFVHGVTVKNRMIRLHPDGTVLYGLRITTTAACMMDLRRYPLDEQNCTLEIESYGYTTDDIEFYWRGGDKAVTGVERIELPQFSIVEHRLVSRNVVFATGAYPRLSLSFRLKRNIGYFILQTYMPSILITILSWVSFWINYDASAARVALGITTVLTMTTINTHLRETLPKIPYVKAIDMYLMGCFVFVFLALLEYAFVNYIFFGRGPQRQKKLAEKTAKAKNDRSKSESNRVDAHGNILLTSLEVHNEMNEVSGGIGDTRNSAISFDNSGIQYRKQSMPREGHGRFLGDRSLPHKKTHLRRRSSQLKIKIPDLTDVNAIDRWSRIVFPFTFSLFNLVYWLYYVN

[2] = molecular target: T2, human α2-GABAA receptor (α2-GABAAR-HEK293 cells) (Homo sapiens, UniProt P18507+P47869); assay: Whole-cell patch-clamp electrophysiology, positive allosteric modulatory activity on α2-GABAA receptor; type: cell-based; settings: read-out: α2-GABAA positive allosteric modulatory activity
T2 construct: expressed in transfected cells
T2 sequence (P47869 29-451): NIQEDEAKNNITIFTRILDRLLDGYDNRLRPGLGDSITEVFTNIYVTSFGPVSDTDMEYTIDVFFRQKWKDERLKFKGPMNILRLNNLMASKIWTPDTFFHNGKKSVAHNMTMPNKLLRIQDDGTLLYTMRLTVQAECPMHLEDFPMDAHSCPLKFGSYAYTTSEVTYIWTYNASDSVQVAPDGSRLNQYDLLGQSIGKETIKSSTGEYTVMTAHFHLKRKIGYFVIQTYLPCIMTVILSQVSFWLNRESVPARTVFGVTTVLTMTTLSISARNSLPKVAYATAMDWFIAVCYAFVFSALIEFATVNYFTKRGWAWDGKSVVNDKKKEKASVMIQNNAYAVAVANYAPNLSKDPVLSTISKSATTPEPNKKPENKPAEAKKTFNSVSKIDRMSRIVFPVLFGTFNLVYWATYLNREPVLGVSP
T2 sequence (P18507 40-467 isoform P18507-1 limits assumed): as the sequence (P18507 40-467 isoform P18507-1 limits assumed) above
T2 sequence (P28472 26-473 partner): as the sequence (P28472 26-473 partner) above

activation at 0.1 µM [1] | activation at 0.1 µM [2] | SMILES
13% | 96% | CCN1C(=O)COc2cc(-c3cc(-c4cnnc5c4ncn5CC)ccc3F)c(OC)cc21 [Example 31, 4-Ethyl-7-(5-(7-ethyl-7H-imidazo[4,5-c]pyridazin-4-yl)-2-fluorophenyl)-6-methoxy-2H-benzo[b][1,4]oxazin-3(4H)-one]
25% | 137% | COc1cc2c(cc1-c1cc(-c3cnnc4c3ncn4C(C)C)ccc1F)OCC(=O)N2C [Example 36, 7-(2-Fluoro-5-(7-isopropyl-7H-imidazo[4,5-c]pyridazin-4-yl)phenyl)-6-methoxy-4-methyl-2H-benzo[b][1,4]oxazin-3(4H)-one]
27% | 145% | CCn1cnc2c(-c3ccc(F)c(-c4cc5c(cc4OC)N(C)C(=O)CO5)c3)cnnc21 [Example 42, 7-(5-(7-Ethyl-7H-imidazo[4,5-c]pyridazin-4-yl)-2-fluorophenyl)-6-methoxy-4-methyl-2H-benzo[b][1,4]oxazin-3(4H)-one]
3% | 114% | CCn1cnc2c(-c3ccc(F)c(-c4cc5oc(=O)n(C)c5cc4OC)c3)cnnc21 [Example 87, 6-(5-(7-Ethyl-7H-imidazo[4,5-c]pyridazin-4-yl)-2-fluorophenyl)-5-methoxy-3-methylbenzo[d]oxazol-2(3H)-one]
65% | 118% | CCn1cnc2c(-c3ccc(F)c(-c4cc5c(cc4OC)N(C)C(=O)C5)c3)cnnc21 [Example 161, 5-(5-(7-Ethyl-7H-imidazo[4,5-c]pyridazin-4-yl)-2-fluorophenyl)-6-methoxy-1-methyldihydro-2-one]
